In EP0527889B1, “QUINOLIZINONE TYPE COMPOUNDS” (priority 1990, dated 1991):
Converted amounts (≈) assume the structure as drawn. Structures can show the parent of a compound that is named as a salt.

Assays:
Escherichia coli JUHL [1] = assay: In vitro antibacterial activity, MIC by agar dilution; format: cell-based; details: BHI agar, 35-37°C, 20-24 hours, unit assumed
Method in brief: (§1)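 Using a Steers replicator, about 10^4 CFU of each diluted organism were spotted on agar with test compound. After ~20–24 h at 35–37°C, MIC was taken as the lowest concentration without growth compared with compound-free BHI agar; ciprofloxacin served as reference antibiotic.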

[2] = test system: Staphylococcus aureus A-5278; assay: as above; format: cell-based; details: BHI agar, 35-37°C, 20-24 hours, unit assumed
Method in brief: as §1

[3] = test system: Streptococcus pyrogenes CONST; assay: as above; format: cell-based; details: BHI agar, 35-37°C, 20-24 hours, unit assumed
Method in brief: as §1

[4] = test system: Staphylococcus aureus 1775; assay: as above; format: cell-based; details: BHI agar, 35-37°C, 20-24 hours, unit assumed
Method in brief: as §1

[5] = test system: Streptococcus pyrogenes EES61; assay: as above; format: cell-based; details: BHI agar, 35-37°C, 20-24 hours, unit assumed
Method in brief: as §1

[6] = test system: Acinetobacter calcoaceticus CMX 669; assay: as above; format: cell-based; details: BHI agar, 35-37°C, 20-24 hours, unit assumed
Method in brief: as §1

[7] = test system: Staphylococcus aureus ATCC 6538P; assay: as above; format: cell-based; details: BHI agar, 35-37°C, 20-24 hours, unit assumed
Method in brief: as §1

[8] = test system: Micrococcus luteus ATCC 4698; assay: as above; format: cell-based; details: BHI agar, 35-37°C, 20-24 hours, unit assumed
Method in brief: as §1

[9] = test system: Pseudomonas aeruginosa BMH10; assay: as above; format: cell-based; details: BHI agar, 35-37°C, 20-24 hours, unit assumed
Method in brief: as §1

[10] = test system: Streptococcus agalactaciae CMX 508; assay: as above; format: cell-based; details: BHI agar, 35-37°C, 20-24 hours, unit assumed
Method in brief: as §1

Pseudomonas cepacia 296I = assay: as above; format: cell-based; details: BHI agar, 35-37°C, 20-24 hours, unit assumed
Method in brief: as §1

Escherichia coli H560 = assay: as above; format: cell-based; details: BHI agar, 35-37°C, 20-24 hours, unit assumed
Method in brief: as §1

[11] = test system: Pseudomonas aeruginosa 5263; assay: as above; format: cell-based; details: BHI agar, 35-37°C, 20-24 hours, unit assumed
Method in brief: as §1

[12] = test system: Staphylococcus aureus CMX 553; assay: as above; format: cell-based; details: BHI agar, 35-37°C, 20-24 hours, unit assumed
Method in brief: as §1

[13] = test system: Pseudomonas aeruginosa A5007; assay: as above; format: cell-based; details: BHI agar, 35-37°C, 20-24 hours, unit assumed
Method in brief: as §1

Escherichia coli KNK 437 = assay: as above; format: cell-based; details: BHI agar, 35-37°C, 20-24 hours, unit assumed
Method in brief: as §1

[14] = test system: Streptococcus bovis A5169; assay: as above; format: cell-based; details: BHI agar, 35-37°C, 20-24 hours, unit assumed
Method in brief: as §1

[15] = test system: Pseudomonas aeruginosa K799/61; assay: as above; format: cell-based; details: BHI agar, 35-37°C, 20-24 hours, unit assumed
Method in brief: as §1

[16] = test system: Staphylococcus epidermidis 3519; assay: as above; format: cell-based; details: BHI agar, 35-37°C, 20-24 hours, unit assumed
Method in brief: as §1

Escherichia coli DC-2 = assay: as above; format: cell-based; details: BHI agar, 35-37°C, 20-24 hours, unit assumed
Method in brief: as §1

[17] = test system: Enterococcus faecium ATCC 8043; assay: as above; format: cell-based; details: BHI agar, 35-37°C, 20-24 hours, unit assumed
Method in brief: as §1

[18] = test system: Staphylococcus aureus NCTC 10649; assay: as above; format: cell-based; details: BHI agar, 35-37°C, 20-24 hours, unit assumed
Method in brief: as §1

Escherichia coli SS = assay: as above; format: cell-based; details: BHI agar, 35-37°C, 20-24 hours, unit assumed
Method in brief: as §1

[19] = test system: Klebsiella pneumoniae ATCC 8045; assay: as above; format: cell-based; details: BHI agar, 35-37°C, 20-24 hours, unit assumed
Method in brief: as §1

[20] = test system: Enterobacter aerogenes ATCC 13048; assay: as above; format: cell-based; details: BHI agar, 35-37°C, 20-24 hours, unit assumed
Method in brief: as §1

[21] = test system: Staphylococcus aureus A5177; assay: as above; format: cell-based; details: BHI agar, 35-37°C, 20-24 hours, unit assumed
Method in brief: as §1

[22] = test system: Pseudomonas aeruginosa K799/WT; assay: as above; format: cell-based; details: BHI agar, 35-37°C, 20-24 hours, unit assumed
Method in brief: as §1

[23] = test system: Providencia stuartii CMX 640; assay: as above; format: cell-based; details: BHI agar, 35-37°C, 20-24 hours, unit assumed
Method in brief: as §1

[24] = test system: Pseudomonas aeruginosa 2862; assay: as above; format: cell-based; details: BHI agar, 35-37°C, 20-24 hours, unit assumed
Method in brief: as §1

[25] = test system: Staphylococcus aureus 642A; assay: as above; format: cell-based; details: BHI agar, 35-37°C, 20-24 hours, unit assumed
Method in brief: as §1

[26] = test system: Streptococcus pyrogenes 2548 INDUC; assay: as above; format: cell-based; details: BHI agar, 35-37°C, 20-24 hours, unit assumed
Method in brief: as §1

[27] = test system: Micrococcus luteus ATCC 9341; assay: as above; format: cell-based; details: BHI agar, 35-37°C, 20-24 hours, unit assumed
Method in brief: as §1

Escherichia coli JUHL [28] = assay: In vivo antibacterial activity in mice (protection from lethal intraperitoneal infection); details: 144 h, E. coli JUHL, mice infected intraperitoneally, treated at 1 and 5 hr after infection, cumulative mortalities on the sixth day
Experimental: (§2) The in vivo antibacterial activity of the compounds of the present invention was determined as follows: Aqueous solutions of the test compounds were prepared by dissolving the compound in distilled water, except for the compounds of examples 169 and 170 which were dissolved in a solution of 2% DMSO in distilled water.
(§3) After 18 hr incubation, a culture of Staphylococcus aureus NCTC 10649 was serially diluted by using 10-fold dilutions in 5% (w/v) hog gastric mucin. Cultures (0.5 mL) in a dilution from 10^-1 to 10^-8 were injected intraperitoneally into CF-1 female mice weighing approximately 20g. The LD50 (median lethal dose) for the test organism was calculated from the cumulative mortalities on the sixth day by the using the Reed and Muench procedure (Reed, L.J., and H. Muench, Amer. J. Hygiene, 27, 493 (1938)).
(§4) The above 18 hr culture was diluted in 5% (w/v) hog gastric mucin to obtain 100 times the LD50, and 0.5 mL was injected intraperitoneally into mice. The mice were treated subcutaneously (sc) or orally (po) with a specific amount of the test compound divided equally to be administered at 1 and 5 hr after infection. A group of 10 animals each for at least three dose levels was thus treated, and the deaths were recorded daily for 6 days. Ten mice were left untreated as infection control. ED50 values were calculated from the cumulative mortalities on the sixth day after infection by using the trimmed version of the Logit method ( Hamilton, M.A., R.C. Russo, and R.V. Thurston, Environ. Sci. Technol. 11, 714 (1977)).
The LD50 for Escherichia coli JUHL was determined in a manner similar to that above for S. aureus. The 18 hr cultures of this organism were also prepared for po and sc testing in mice, from which ED50 values were calculated. Positive controls were run with temafloxacin as the test compound, for which ED50 values were also calculated.

[29] = test system: Staphylococcus aureus NCTC 10649; assay: as above; details: NCTC10649, 144 h, S. aureus, CF-1 female mice infected intraperitoneally with 100 times the LD50, treated at 1 and 5 hr after infection, cumulative mortalities on the sixth day
Experimental: as §2, §3, §4

SMILES | MIC values (Escherichia coli JUHL [1]) [µg/mL] | MIC values [2] [µg/mL] | MIC values [3] [µg/mL] | MIC values [4] [µg/mL] | MIC values [5] [µg/mL] | MIC values [6] [µg/mL] | MIC values [7] [µg/mL] | MIC values [8] [µg/mL] | MIC values [9] [µg/mL] | MIC values [10] [µg/mL] | MIC values (Pseudomonas cepacia 296I) [µg/mL] | MIC values (Escherichia coli H560) [µg/mL] | MIC values [11] [µg/mL] | MIC values [12] [µg/mL] | MIC values [13] [µg/mL] | MIC values (Escherichia coli KNK 437) [µg/mL] | MIC values [14] [µg/mL] | MIC values [15] [µg/mL] | MIC values [16] [µg/mL] | MIC values (Escherichia coli DC-2) [µg/mL] | other results
CCC[C@H](N)C(=O)NC1CCN(c2nc3c(-c4ccc(F)cc4F)cc(C(=O)O)c(=O)n3cc2F)C1 (stereo partly drawn) [Example 166, 9-(2,4-Difluorophenyl)-3-fluoro-2-(3-(N-(S)-norvalyl)aminopyrrolidin-1-yl)-6H-6-oxopyrido[1,2-a]pyrimidine-7-carboxylic acid hydrochloride salt] | 0.78 | 1.56 | 1.56 | > 100 | 1.56 | 3.1 | 0.39 | 25 | 3.1 | 3.1 | > 100 | 0.78 | > 100 | 3.1 | 6.2 | 6.2 | 25 | 0.39 | 0.78 | 12.5 | MIC values [17]: 12.5 µg/mL; MIC values [18]: 0.39 µg/mL; MIC values (Escherichia coli SS): 0.05 µg/mL; MIC values [19]: 1.56 µg/mL; MIC values [20]: 3.1 µg/mL; MIC values [21]: 1.56 µg/mL; MIC values [22]: 6.2 µg/mL; MIC values [23]: > 100 µg/mL; MIC values [24]: > 100 µg/mL; MIC values [25]: 1.56 µg/mL; MIC values [26]: 1.56 µg/mL; MIC values [27]: 50 µg/mL; ED50 (Escherichia coli JUHL [28]; po): 25 mg/kg; ED50 (Escherichia coli JUHL [28]; sc): < 2.5 mg/kg; ED50 ([29]; po): > 24 mg/kg; ED50 ([29]; sc): 8 mg/kg
CC(=O)N[C@H]1C[C@H](C)N(c2nc3c(-c4ccc(F)cc4F)cc(C(=O)O)c(=O)n3cc2F)C1 [Example 169, 2-((2S,4S)-4-Acetamido-2-methylpyrrolidin-1-yl)-9-(2,4-difluorophenyl)-3-fluoro-6H-6-oxopyrido[1,2-a]pyrimidine-7-carboxylic acid] | 0.78 (≈ 1.69 µM) | 0.2 (≈ 0.434 µM) | 0.39 (≈ 0.847 µM) | 25 (≈ 54.3 µM) | 0.78 (≈ 1.69 µM) | 3.1 (≈ 6.73 µM) | 0.1 (≈ 0.217 µM) | 0.39 (≈ 0.847 µM) | 3.1 (≈ 6.73 µM) | 0.78 (≈ 1.69 µM) | 25 (≈ 54.3 µM) | 0.78 (≈ 1.69 µM) | > 100 | 0.39 (≈ 0.847 µM) | 3.1 (≈ 6.73 µM) | 6.2 (≈ 13.5 µM) | 3.1 (≈ 6.73 µM) | 0.39 (≈ 0.847 µM) | 0.39 (≈ 0.847 µM) | 12.5 (≈ 27.1 µM) | MIC values [17]: 1.56 µg/mL (≈ 3.39 µM); MIC values [18]: 0.2 µg/mL (≈ 0.434 µM); MIC values (Escherichia coli SS): 0.005 µg/mL (≈ 0.0109 µM); MIC values [19]: 0.39 µg/mL (≈ 0.847 µM); MIC values [20]: 3.1 µg/mL (≈ 6.73 µM); MIC values [21]: 0.2 µg/mL (≈ 0.434 µM); MIC values [22]: 3.1 µg/mL (≈ 6.73 µM); MIC values [23]: 25 µg/mL (≈ 54.3 µM); MIC values [24]: > 100 µg/mL; MIC values [25]: 0.39 µg/mL (≈ 0.847 µM); MIC values [26]: 0.39 µg/mL (≈ 0.847 µM); MIC values [27]: 3.1 µg/mL (≈ 6.73 µM); ED50 ([29]; po): > 48 mg/kg; ED50 ([29]; sc): 7.5 mg/kg
C[C@H](N)C(=O)N[C@@H](C)C(=O)N[C@H]1C[C@H](C)N(c2nc3c(-c4ccc(F)cc4F)cc(C(=O)O)c(=O)n3cc2F)C1 [Example 173, 2-((2S, 4S)-4-(N-(S)-Alanyl-(S)-alanyl)amino-2-methylpyrrolidin-1-yl)-9-(2,4-difluorophenyl)-3-fluoro-6H-6-oxopyrido[1,2-a]pyrimidine-7-carboxylic acid hydrochloride] | 6.2 | 6.2 | 12.5 | > 100 | 12.5 | 25 | 1.56 | 100 | 50 | 12.5 | > 100 | 3.1 | > 100 | 12.5 | 50 | 100 | 25 | 3.1 | 6.2 | > 100 | MIC values [17]: 50 µg/mL; MIC values [18]: 1.56 µg/mL; MIC values (Escherichia coli SS): 0.1 µg/mL; MIC values [19]: 3.1 µg/mL; MIC values [20]: 25 µg/mL; MIC values [21]: 6.2 µg/mL; MIC values [22]: 100 µg/mL; MIC values [23]: > 100 µg/mL; MIC values [24]: > 100 µg/mL; MIC values [25]: 12.5 µg/mL; MIC values [26]: 6.2 µg/mL; MIC values [27]: > 100 µg/mL
CC1CN(c2cc3c(cc2F)c(=O)c(C(=O)O)cn3-c2ccc(F)cc2F)CCN1 (stereo not shown) [temafloxacin, reference compound] | – | – | – | – | – | – | – | – | – | – | – | – | – | – | – | – | – | – | – | – | ED50 (Escherichia coli JUHL [28]; po): 1.5 mg/kg; ED50 (Escherichia coli JUHL [28]; sc): 0.5 mg/kg; ED50 ([29]; po): 1.5 mg/kg; ED50 ([29]; sc): 1.3 mg/kg
